Data taken from US20180057505A1, “BICYCLIC HETEROARYL COMPOUNDS USEFUL AS INHIBITORS OF THE PAR-2 SIGNALING PATHWAY” (VERTEX PHARMACEUTICALS INCORPORATED, priority 2015, published 2018).

Experiments:
Format in all cases: cell-based
[1] = tested on: UTP-stimulated Ca2+ response in HT-29 cells; assay: Ca FLIPR TETRA assay, ANTAGONIST mode, activator 0.6 μM UTP; conditions: HT-29 cells, activator 0.6 μM UTP
Procedure: (§1) Protocol for Testing PAR2 Compounds in ANTAGONIST Mode Using the Ca FLIPR^TETRA Assay (384 Well).
(§2) 23000 HT-29 cells (ATCC# HTB-38) were plated in 384-well black, transparent-flat bottom plates and incubated in 25 uL of 1% FBS/McCoy's media ON at 37° C. under an atmosphere of 5% CO2. The following day, 25 uL FLIPR calcium 5 Molecular Devices assay reagent (Cat: R-8186) was added. Plates were incubated at 37° C. and r. t. for 45 min and 15 min, respectively. Compounds dilutions were prepared in 100% DMSO using a Biomek FX and diluted 20-fold in HBSS and then 5.5 uL was added directly to the cells by the FLIPR^TETRA (10× dilution) using FLIPR Tetra Pipette tips, black, non-sterile, 384 Molecular Devices (Cat: 9000-0764).
(§3) A first read was performed to determine whether the test compounds on their own can activate Ca^2+ responses. The cells were incubated with the compounds for 30 min at r. t. and then read in ANTAGONIST mode in the same plate by stimulating with 6.2 uL of a fixed concentration of the activator: final concentrations 8 μM SLIGKV, 1 U/mL Thrombin, 3.1 U/mL trypsin, or 0.6 μM UTP.

PAR2 (HT-29 cells) [2] = molecular target: T1, PAR2 (HT-29 cells) (Homo sapiens, UniProt P55085); assay: Ca FLIPR TETRA assay, ANTAGONIST mode, activator 8 μM SLIGKV; conditions: HT-29 cells, activator 8 μM SLIGKV; maximal antagonist concentration per Method (A: 0.1, 1 or 2 μM; B: 50 μM)
T1 construct: host or cells: HT-29
T1 sequence (P55085 26-397): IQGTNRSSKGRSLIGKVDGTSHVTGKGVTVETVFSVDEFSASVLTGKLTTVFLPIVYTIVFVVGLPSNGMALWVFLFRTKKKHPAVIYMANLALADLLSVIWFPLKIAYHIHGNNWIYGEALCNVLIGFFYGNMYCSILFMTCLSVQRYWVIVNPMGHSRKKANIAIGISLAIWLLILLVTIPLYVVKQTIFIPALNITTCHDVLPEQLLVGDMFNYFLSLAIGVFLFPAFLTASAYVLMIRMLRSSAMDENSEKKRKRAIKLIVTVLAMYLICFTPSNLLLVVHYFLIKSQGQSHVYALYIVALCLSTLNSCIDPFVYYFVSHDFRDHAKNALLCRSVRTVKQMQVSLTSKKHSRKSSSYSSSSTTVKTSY
Procedure: as §1, §2, §3

PAR2 (HT-29 cells) [3] = molecular target: T1, PAR2 (HT-29 cells); assay: Ca FLIPR TETRA assay, ANTAGONIST mode, activator 3.1 U/mL trypsin; conditions: HT-29 cells, activator 3.1 U/mL trypsin; maximal antagonist concentration per Method (A: 0.1, 1 or 2 μM; B: 50 μM)
Procedure: as §1, §2, §3

[4] = tested on: Thrombin-stimulated Ca2+ response in HT-29 cells; assay: Ca FLIPR TETRA assay, ANTAGONIST mode, activator 1 U/mL Thrombin; conditions: HT-29 cells, activator 1 U/mL Thrombin
Procedure: as §1, §2, §3

| SMILES | IC50 ([1]; Homo sapiens) | IC50 (PAR2 (HT-29 cells) [2]) | IC50 (PAR2 (HT-29 cells) [3]) | IC50 ([4]; Homo sapiens) | IC50 [1] | IC50 [4] |
| --- | --- | --- | --- | --- | --- | --- |
| CC1(c2cc(-c3ccc(F)cc3)nc3cc(C(=O)N4CCN(C(=O)[C@H]5CCCO5)CC4(C)C)oc23)CC1 [Example I-30] | 13000 nM | 16 nM | 14 nM | 20000 nM |  |  |
| CC1(c2cc(-c3ccc(F)cc3)nc3cc(C(=O)N4CCN(C(=O)C(O)C5CC5)CC4(C)C)oc23)CC1 (centres unmarked) [Example I-31] | > 50000 nM | 17000 nM | 21000 nM | > 50000 nM |  |  |
| CC(C)[C@@H](O)C(=O)N1CCN(C(=O)c2cc3nc(-c4ccc(F)cc4)cc(C4(C)CC4)c3o2)C(C)(C)C1 [Example I-32] | 6700 nM | 5.9 nM | 4.6 nM | 11000 nM |  |  |
| CC1(c2cc(-c3ccc(F)cc3)nc3cc(C(=O)N4CCN(C(=O)[C@H]5CCC(=O)O5)CC4(C)C)oc23)CC1 [Example I-33] | 5800 nM | 94 nM | 64 nM | 3600 nM |  |  |
| CCCCC(O)C(=O)N1CCN(C(=O)c2cc3nc(-c4ccc(F)cc4)cc(C4(C)CC4)c3o2)C(C)(C)C1 (centres unmarked) [Example I-34] | 26000 nM | 4.6 nM | 5.9 nM | > 25000 nM |  |  |
| CCC(C)(O)C(=O)N1CCN(C(=O)c2cc3nc(-c4ccc(F)cc4)cc(C4(C)CC4)c3o2)C(C)(C)C1 (centres unmarked) [Example I-35] | 11000 nM | 34 nM | 49 nM | 14000 nM |  |  |
| CC(C)C[C@@H](O)C(=O)N1CCN(C(=O)c2cc3nc(-c4ccc(F)cc4)cc(C4(C)CC4)c3o2)C(C)(C)C1 [Example I-36] | > 26000 nM | 0.97 nM | 1.5 nM | 31000 nM |  |  |
| COCCOCC(=O)N1CCN(C(=O)c2cc3nc(-c4ccc(F)cc4)cc(C4(C)CC4)c3o2)C(C)(C)C1 [Example I-37] | 17000 nM | 57 nM | 67 nM | 21000 nM |  |  |
| CC(C)(C)CC(O)C(=O)N1CCN(C(=O)c2cc3nc(-c4ccc(F)cc4)cc(C4(C)CC4)c3o2)C(C)(C)C1 (centres unmarked) [Example I-38] | 39000 nM | 3.5 nM | 3.1 nM | > 50000 nM |  |  |
| CC1(c2cc(-c3ccc(F)cc3)nc3cc(C(=O)N4CCN(C(=O)C(C)(O)C(F)(F)F)CC4(C)C)oc23)CC1 (centres unmarked) [Example I-39] | 23000 nM | 14 nM | 20 nM | 21000 nM |  |  |
| CC1(c2cc(-c3ccc(F)cc3)nc3cc(C(=O)N4CCN(C(=O)[C@H](O)C5CCCCC5)CC4(C)C)oc23)CC1 [Example I-40] | 30000 nM | 5 nM | 7.3 nM | 37000 nM |  |  |
| CC1(c2cc(-c3ccc(F)cc3)nc3cc(C(=O)N4CCN(C(=O)[C@H](O)Cc5ccccc5)CC4(C)C)oc23)CC1 [Example I-41] | > 50000 nM | 6.5 nM | 8.5 nM | > 50000 nM |  |  |
| CC1(c2cc(-c3ccc(F)cc3)nc3cc(C(=O)N4CCN(C(=O)C5CCCCC5)CC4(C)C)oc23)CC1 [Example I-42] | > 50000 nM | 1.2 nM | 1.2 nM | > 50000 nM |  |  |
| CC1(C(=O)N2CCN(C(=O)c3cc4nc(-c5ccc(F)cc5)cc(C5(C)CC5)c4o3)C(C)(C)C2)CCCCC1 [Example I-43] | > 50000 nM | 6.9 nM | 8.2 nM | > 50000 nM |  |  |
| CCC(C)C(=O)N1CCN(C(=O)c2cc3nc(-c4ccc(F)cc4)cc(C4(C)CC4)c3o2)C(C)(C)C1 (centres unmarked) [Example I-44] | 36000 nM | 2.9 nM | 3.2 nM | > 40000 nM |  |  |
| CC1(C(=O)N2CCN(C(=O)c3cc4nc(-c5ccc(F)cc5)cc(C5(C)CC5)c4o3)C(C)(C)C2)CC1 [Example I-45] | 4700 nM | 4 nM | 4.1 nM | 20000 nM |  |  |
| CC(C)C(=O)N1CCN(C(=O)c2cc3nc(-c4ccc(F)cc4)cc(C4(C)CC4)c3o2)C(C)(C)C1 [Example I-46] | 5300 nM | 7.9 nM | 7 nM | 4100 nM |  |  |
| CC[C@H](C(=O)N1CCN(C(=O)c2cc3nc(-c4ccc(F)cc4)cc(C4(C)CC4)c3o2)C(C)(C)C1)c1ccccc1 [Example I-47] | > 50000 nM | 29 nM | 78 nM | > 50000 nM |  |  |
| CC1(c2cc(-c3ccc(F)cc3)nc3cc(C(=O)N4CCN(C(=O)C5CCC5)CC4(C)C)oc23)CC1 [Example I-48] | 16000 nM | 5.1 nM | 5.9 nM | 16000 nM |  |  |
| CC1(c2cc(-c3ccc(F)cc3)nc3cc(C(=O)N4CCN(C(=O)C5CC5)CC4(C)C)oc23)CC1 [Example I-49] | 18000 nM | 5.9 nM | 12 nM | 15000 nM |  |  |

Results, then the molecule that gave them:

| IC50 ([1]; Homo sapiens) | IC50 (PAR2 (HT-29 cells) [2]) | IC50 (PAR2 (HT-29 cells) [3]) | IC50 ([4]; Homo sapiens) | IC50 [1] | IC50 [4] | SMILES |
| --- | --- | --- | --- | --- | --- | --- |
| > 50000 nM | 4.9 nM | 5.1 nM | > 50000 nM |  |  | CC1(c2cc(-c3ccc(F)cc3)nc3cc(C(=O)N4CCN(C(=O)C5C(C)(C)C5(C)C)CC4(C)C)oc23)CC1 [Example I-50] |
| > 50000 nM | 5.8 nM | 5.3 nM | 24000 nM |  |  | CC1(c2cc(-c3ccc(F)cc3)nc3cc(C(=O)N4CCN(C(=O)C5(C#N)CC5)CC4(C)C)oc23)CC1 [Example I-51] |
| > 50000 nM | 4.2 nM | 6 nM | > 50000 nM |  |  | CCC(C)(C)C(=O)N1CCN(C(=O)c2cc3nc(-c4ccc(F)cc4)cc(C4(C)CC4)c3o2)C(C)(C)C1 [Example I-52] |
| > 50000 nM | 53 nM | 74 nM | > 50000 nM |  |  | CC1(c2cc(-c3ccc(F)cc3)nc3cc(C(=O)N4CCN(C(=O)C5(c6ccc(Cl)cc6)CC5)CC4(C)C)oc23)CC1 [Example I-53] |
| 7900 nM | 4.5 nM | 6.3 nM | 9600 nM |  |  | CC1(c2cc(-c3ccc(F)cc3)nc3cc(C(=O)N4CCN(C(=O)C5CCOCC5)CC4(C)C)oc23)CC1 [Example I-54] |
| > 33000 nM | 2.8 nM | 4.6 nM | 29000 nM |  |  | CC1(c2cc(-c3ccc(F)cc3)nc3cc(C(=O)N4CCN(C(=O)C5(C(F)(F)F)CC5)CC4(C)C)oc23)CC1 [Example I-55] |
| 5200 nM | 16 nM | 31 nM | 9000 nM |  |  | CC1(c2cc(-c3ccc(F)cc3)nc3cc(C(=O)N4CCN(C(=O)C5(O)CCC5)CC4(C)C)oc23)CC1 [Example I-56] |
| 8600 nM | 53 nM | 77 nM | 6800 nM |  |  | CC1(c2cc(-c3ccc(F)cc3)nc3cc(C(=O)N4CCN(C(=O)C5(O)CCOCC5)CC4(C)C)oc23)CC1 [Example I-57] |
| 30000 nM | 0.31 nM | 0.64 nM | 19000 nM |  |  | CC1(c2cc(-c3ccc(F)cc3)nc3cc(C(=O)N4CCN(C(=O)C5CC(O)(C(F)(F)F)C5)CC4(C)C)oc23)CC1 (centres unmarked) [Example I-58] |
| 15000 nM | 21 nM | 49 nM | 15000 nM |  |  | CC[C@H](O)C(=O)N1CCN(C(=O)c2cc3nc(-c4ccc(F)cc4)cc(C4(C)CC4)c3o2)C(C)(C)C1 [Example I-59] |
|  | 48 nM | 67 nM |  | 13000 nM | 14000 nM | CC1(c2cc(-c3ccc(F)cc3)nc3cc(C(=O)N4CCN(C(=O)C5CCOC5)CC4(C)C)oc23)CC1 (centres unmarked) [Example I-60] |
| 13000 nM | 4.8 nM | 11 nM | 17000 nM |  |  | CC[C@@H](O)C(=O)N1CCN(C(=O)c2cc3nc(-c4ccc(F)cc4)cc(C(C)C)c3o2)C(C)(C)C1 [Example I-61] |
| 5200 nM | 40 nM | 39 nM | 4700 nM |  |  | CC(C)c1cc(-c2ccc(F)cc2)nc2cc(C(=O)N3CCN(C(=O)CC(C)(C)O)CC3(C)C)oc12 [Example I-62] |
| 19000 nM | 62 nM | 110 nM | 18000 nM |  |  | CO[C@H](C)C(=O)N1CCN(C(=O)c2cc3nc(-c4ccc(F)cc4)cc(C(C)C)c3o2)C(C)(C)C1 [Example I-63] |
| 21000 nM | 4.5 nM | 6 nM | 30000 nM |  |  | CC(C)c1cc(-c2ccc(F)cc2)nc2cc(C(=O)N3CCN(C(=O)C4CCCCO4)CC3(C)C)oc12 (centres unmarked) [Example I-64] |
